According to US11236084B2, “Substituted azaindoline derivatives as NIK inhibitors” (Janssen Pharmaceutica NV, priority 2017, dated 2022):

Tests used:
[1] = target: recombinant human NF-kappaB-inducing kinase (NIK/MAP3K14) (Homo sapiens, UniProt Q99558); experiment: Biological Assay B: inhibition of auto-phosphorylation of recombinant human NIK/MAP3K14 (AlphaScreen), performed at 2 locations; format: biochemical; conditions: location 1; NIK auto-phosphorylation, AlphaScreen; averaged values; read-out: Assay B location 1 IC50
Sequence of recombinant human NF-kappaB-inducing kinase (NIK/MAP3K14) (Q99558 whole entry): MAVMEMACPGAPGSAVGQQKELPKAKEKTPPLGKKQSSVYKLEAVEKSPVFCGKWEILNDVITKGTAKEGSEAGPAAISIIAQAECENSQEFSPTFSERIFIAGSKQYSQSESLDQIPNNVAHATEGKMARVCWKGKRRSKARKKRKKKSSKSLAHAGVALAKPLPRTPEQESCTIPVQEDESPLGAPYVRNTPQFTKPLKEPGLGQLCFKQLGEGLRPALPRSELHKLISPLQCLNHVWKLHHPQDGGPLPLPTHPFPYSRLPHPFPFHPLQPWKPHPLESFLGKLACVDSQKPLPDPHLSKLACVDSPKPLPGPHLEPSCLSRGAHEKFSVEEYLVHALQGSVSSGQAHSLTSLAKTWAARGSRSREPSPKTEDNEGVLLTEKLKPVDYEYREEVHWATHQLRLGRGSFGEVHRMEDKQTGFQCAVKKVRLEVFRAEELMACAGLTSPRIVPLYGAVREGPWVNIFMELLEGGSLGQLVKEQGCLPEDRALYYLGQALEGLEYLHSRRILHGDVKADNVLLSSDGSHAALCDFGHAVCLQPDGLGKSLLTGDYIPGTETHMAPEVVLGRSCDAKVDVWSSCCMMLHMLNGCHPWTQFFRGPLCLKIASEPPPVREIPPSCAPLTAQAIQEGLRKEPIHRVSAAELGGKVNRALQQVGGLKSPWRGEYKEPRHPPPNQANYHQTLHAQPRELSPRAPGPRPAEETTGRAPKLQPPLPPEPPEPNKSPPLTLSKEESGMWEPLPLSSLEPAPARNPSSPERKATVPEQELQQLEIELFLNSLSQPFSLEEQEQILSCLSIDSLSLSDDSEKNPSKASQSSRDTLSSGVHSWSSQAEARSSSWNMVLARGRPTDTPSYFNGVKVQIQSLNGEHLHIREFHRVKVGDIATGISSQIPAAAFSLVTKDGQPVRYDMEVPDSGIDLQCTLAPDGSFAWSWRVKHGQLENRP
How it was run: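 Run at two separate sites: 1 h, 25° C. reactions containing 0.2 nM GST-NIK, 25 microM ATP and compound (1% DMSO) in Tris pH 7.5/MgCl2 buffer. Phosphorylation detected via anti-phospho-IKK Ser176/180 antibody with AlphaScreen beads; IC50 fitted to % inhibition.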

[2] = tested on: P-IKKα levels in L363 (NIK translocated multiple myeloma) cells; experiment: Biological Assay C: effect of compounds on P-IKKα levels in L363 (NIK translocated multiple myeloma) cells, performed at 2 locations; format: cell-based, human; conditions: location 1; P-IKKα levels in L363 cells, 2 hr treatment; averaged values; read-out: Assay C location 1 IC50
How it was run: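 Human L363 cells were primed 24 h with recombinant human BAFF, then treated 2 h with compound (8-point 1:3 dilutions, 1% DMSO) at 37 °C. IC50 came from a sigmoidal fit of % inhibition versus log concentration, determined at two sites.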

| Compound | IC50 [1] | IC50 [2] | melting point |
| --- | --- | --- | --- |
| COc1cc(N2CCC(O)CC2)c(Cl)cc1Nc1nccc(-c2cnc3c(c2)C(C)(CO)CN3)n1 (single isomer, unassigned) [Compound 16] | 3.2 nM | 19.1 nM | > 260 °C |
| COc1cc(N2CC3(CCOCC3)C2)c(Cl)cc1Nc1ncc(F)c(-c2cnc3c(c2)C(C)(CO)CN3)n1 (stereo not shown) [Compound 345] | 19.1 nM |  | > 250 °C |
| COc1ccc(Cl)cc1Nc1nccc(-c2cnc3c(c2)C(C)(C)CN3)n1 [Compound 353] | 72.4 nM |  | 210 °C |
